# Results as given in article PMC9743094, “Synthesis and Evaluation of Polymyxins Bearing Reductively Labile Disulfide-Linked Lipids” (Journal of Medicinal Chemistry, 2022).
# Like-named read-outs stand apart in the source and are kept apart here. Starred links: 1 amine or outer side, 2 acyl side, 3 side chain; linkers in the order of their positions; H or OH if unused. Positions of bridges follow the written chain, without caps; N, C: chain ends. Non-standard residues stand in square brackets, D forms with d. Residues, ends and D or L forms follow the SMILES beside them. *: point of attachment. X2 = CC(C)CCCCC[C@@H](N[*:1])C(=O)[*:2]; S(3-Cl-benzyl) = Clc1cccc(CS*)c1; Dab = NCC[C@H](N)C(=O)O; X1 = CC(C)CCCCS*
# Tests used:
# [1] = system: A. baumannii (ATCC 19606); format: cell-based; details: ATCC 19606
# Protocol: (§1) Minimum inhibitory concentrations (MICs) on relevant Gram-negative bacteria were determined by broth microdilution, in accordance with CLSI guidelines. Indicated bacteria were taken from glycerol stocks and incubated overnight on blood agar at 37 °C. Well-isolated colonies were taken, suspended in TSB (5 mL), and grown to an OD600 of 0.5. Compounds to be tested were dissolved in DMSO (6.4 mg/mL), diluted in cation-adjusted Mueller–Hinton Broth (CAMHB) (12.5 and 20 μg/mL Mg^2+ and Ca^2+, respectively), and diluted serially on polypropylene microtiter plates. To the diluted compounds (50 μL per well) was added 50 μL of relevant bacterial suspension, to yield a final concentration of 10^6 CFU/mL. Plates were covered by adhesive gas-permeable membranes and incubated at 37 °C. MIC was read out as the lowest concentration that inhibited visual bacterial growth. Shown values are consistent results from at least duplicate experiments.
# E. coli (ATCC 25922) = format: cell-based; details: ATCC 25922
# Protocol: as §1
# [2] = system: K. pneumoniae (ATCC 13883); format: cell-based; details: ATCC 13883
# Protocol: as §1
# [3] = system: P. aeruginosa (ATCC 27853); format: cell-based; details: ATCC 27853
# Protocol: as §1
# [4] = system: differentiated conditionally immortalized PTECs (ciPTECs, OAT-1); assay: ciPTEC toxicity assay (PrestoBlue); format: cell-based, human
# Protocol: ciPTECs (OAT-1) cells,[52],[53] grown to 90–100% confluence, were washed by Hanks’ balanced salt solution (HBSS; Gibco, Life Technologies, Paisley, U.K.) and detached by accutase (4 mL) for 5 min at 37 °C. The cells were then suspended in fresh medium (DMEM/F-12, supplemented with 10% fetal calf serum, insulin (5 μg/mL), transferrin (5 μg/mL), selenium (5 μg/mL) hydrocortisone (35 ng/mL), Epidermal Growth Factor (10 ng/mL) and tri-iodothyronine (40 pg/mL)). Cell density was adjusted to 2.0 × 10^5 cells/mL, of which 100 μL was added to each well of a 96-well plate. The cells were incubated for 24 h at 33 °C, followed by 6 days at 37 °C, in a humidified atmosphere containing 5% (v/v) CO2. The medium was refreshed every second or third day.
# Compounds were dissolved and serially diluted in serum-free medium. Differentiated cells were washed once with HBSS and serially diluted compounds (80 μL/well) were transferred to the ciPTEC-containing plate. Compounds were incubated for 24 h at 37 °C; the cells were washed by HBSS, followed by incubation with 10% PrestoBlue cell viability reagent (Thermo Scientific, Vienna, Austria) in HBSS at 37 °C in the dark. Fluorescence was recorded (excitation: 530 nm, emission: 590 nm). Raw data are corrected for PrestoBlue background fluorescence and reported relative to the no-treatment control (cells with medium only). Viability data were fitted with GraphPad Prism software (version 5.03; GraphPad Software, La Jolla, CA), by nonlinear regression with 0 as bottom constraint. Presented data are based on triplicates.
# Toxicity assessment on PTECs
# Table S1. TC50 values for polymyxin analogues. Toxicity assessment on proximal tubular epithelial cells
# performed using PrestoBlue™ assay. TC50 values are derived after non-linear regression analysis on cell viability
# correspond to data obtained from 2 different batches of cells/analyses on different days. As the value for
# polymyxin B differs 2-fold, values in the manuscript are presented relative to the polymyxin B value.
# Compound TC50 (µ M) Compound TC50 (µ M)
# Polymyxin B 80 Polymyxin B 41
# Figure S3. Representative traces of ciPTECs’ viability after incubation with analogues for 24 hours. Shown data are based on […]
# A. baumannii BAA-747 = format: cell-based; details: BAA-747
# Protocol: as §1
# (§2) Bacterial strains used for MIC assays and extended MIC assessment
# (§3) Strains: The following strains were obtained from BEI Resources, NIAID, NIH: E. Coli M0072, strain
# (§4) Table S2. […] Values are given in μg/mL.
# (§5) Species Strain ID Resistance Polymyxin B 18b 23a 24a
# A. baumannii NRZ-00687 = format: cell-based; details: NRZ-00687
# Protocol: as §1, §2, §3, §4, §5
# A. baumannii RUH-134 = format: cell-based; details: RUH-134
# Protocol: as §1, §2, §3, §4, §5
# E. coli 1793 = format: cell-based; details: 1793
# Protocol: as §1, §2, §3, §4, §5
# E. coli JS136 = format: cell-based; details: JS136
# Protocol: as §1, §2, §3, §4, §5
# E. coli M0072 = format: cell-based; details: M0072
# Protocol: as §1, §2, §3, §4, §5
# K. pneumoniae ATCC 29665 = format: cell-based; details: ATCC 29665
# Protocol: as §1, §2, §3, §4, §5
# K. pneumoniae KP1.53 = format: cell-based; details: KP1.53
# Protocol: as §1, §2, §3, §4, §5
# K. pneumoniae RC0045 = format: cell-based; details: RC0045
# Protocol: as §1, §2, §3, §4, §5
# P. aeruginosa 2018-007 = format: cell-based; details: 2018-007
# Protocol: as §1, §2, §3, §4, §5
# P. aeruginosa 2251 = format: cell-based; details: 2251
# Protocol: as §1, §2, §3, §4, §5
# P. aeruginosa ATCC 10145 = format: cell-based; details: ATCC 10145
# Protocol: as §1, §2, §3, §4, §5
# P. aeruginosa M120 = format: cell-based; details: M120
# Protocol: as §1, §2, §3, §4, §5
# A. baumanii (ATCC 17961) = format: cell-based; details: ATCC 17961, 2 h
# Protocol: as §1
# (§6) Table S3. MIC values [µg/mL] and relative toxicity values for disulfide containing polymyxin derivative 18b and
# (§7) non-disulfide containing analogue 45. […]
# P. aeruginosa (PAO1) = format: cell-based; details: PAO1, 2 h
# Protocol: as §1, §6, §7
MIC A. baumannii (ATCC 19606) [1],MIC K. pneumoniae (ATCC 13883) [2],MIC P. aeruginosa (ATCC 27853) [3],MIC A. baumannii NRZ-00687 (A. baumannii NRZ-00687),Structure (SMILES),MIC E. coli (ATCC 25922) (E. coli (ATCC 25922)),"TC50, Day 2 [4]",ciPTEC Toxicity Index (relative to polymyxin B) [4],further results
1 µg/mL,1 µg/mL,2 µg/mL,1 µg/mL,CC(C)CCCCSSC[C@H](NC(=O)CN)C(=O)N[C@H](C(=O)N[C@@H](CCN)C(=O)N[C@H]1CCNC(=O)[C@H]([C@@H](C)O)NC(=O)[C@H](CCN)NC(=O)[C@H](CCN)NC(=O)[C@H](CC(C)C)NC(=O)[C@@H](Cc2ccccc2)NC(=O)[C@H](CCN)NC1=O)[C@@H](C)O [Compound 24a] (H-GC(X1)T[Dab][Dab][Dab][dF]L[Dab][Dab]T; lactam 5-C),2 µg/mL,327 µM,8.0,MIC A. baumannii BAA-747 (A. baumannii BAA-747): 1 µg/mL; MIC A. baumannii RUH-134 (A. baumannii RUH-134): 1 µg/mL; MIC E. coli 1793 (E. coli 1793): 1 µg/mL; MIC E. coli JS136 (E. coli JS136): 1 µg/mL; MIC E. coli M0072 (E. coli M0072): 1 µg/mL; MIC K. pneumoniae ATCC 29665 (K. pneumoniae ATCC 29665): 1 µg/mL; MIC K. pneumoniae KP1.53 (K. pneumoniae KP1.53): 2 µg/mL; MIC K. pneumoniae RC0045 (K. pneumoniae RC0045): 1 µg/mL; MIC P. aeruginosa 2018-007 (P. aeruginosa 2018-007): 16 µg/mL; MIC P. aeruginosa 2251 (P. aeruginosa 2251): 2 µg/mL; MIC P. aeruginosa ATCC 10145 (P. aeruginosa ATCC 10145): 4 µg/mL; MIC P. aeruginosa M120 (P. aeruginosa M120): 2 µg/mL
0.25 µg/mL,≤ 0.25 µg/mL,1 µg/mL,0.5 µg/mL,CC(C)CCCCC[C@@H](N)C(=O)N[C@H](C(=O)N[C@@H](CCN)C(=O)N[C@H]1CCNC(=O)[C@H]([C@@H](C)O)NC(=O)[C@H](CCN)NC(=O)[C@H](CCN)NC(=O)[C@H](CC(C)C)NC(=O)[C@@H](Cc2ccccc2)NC(=O)[C@H](CCN)NC1=O)[C@@H](C)O [Compound 45] (H-[X2]T[Dab][Dab][Dab][dF]L[Dab][Dab]T; lactam 4-C),,,2.0,"TC50, Day 2 ([4]; 24 h): 82 µM; MIC A. baumanii (ATCC 17961) (A. baumanii (ATCC 17961)): 0.25 µg/mL; MIC P. aeruginosa (PAO1) (P. aeruginosa (PAO1)): 1 µg/mL"

Structure (SMILES),MIC A. baumannii (ATCC 19606) [1],MIC K. pneumoniae (ATCC 13883) [2],MIC P. aeruginosa (ATCC 27853) [3],MIC A. baumannii NRZ-00687 (A. baumannii NRZ-00687),MIC E. coli (ATCC 25922) (E. coli (ATCC 25922)),"TC50, Day 2 [4]",ciPTEC Toxicity Index (relative to polymyxin B) [4],further results
CC(C)C[C@@H]1NC(=O)[C@@H](Cc2ccccc2)NC(=O)[C@H](CCN)NC(=O)[C@@H](NC(=O)[C@H](CCN)NC(=O)[C@@H](NC(=O)[C@H](N)CSSCc2cccc(Cl)c2)[C@@H](C)O)CCNC(=O)[C@H]([C@@H](C)O)NC(=O)[C@H](CCN)NC(=O)[C@H](CCN)NC1=O [Compound 38] (H-[dC](S(3-Cl-benzyl))T[Dab][Dab][Dab][dF]L[Dab][Dab]T; lactam 4-C),1 µg/mL,0.5 µg/mL,4 µg/mL,,1 µg/mL,74 µM,,
